# Experimental data from US20050239873A1 (priority 1999, published 2005).
# Experiments:
# [1] = target: T1, Bcl-xL(ΔC) A142L (Homo sapiens, UniProt Q07817, A142L); assay: Pore-forming activity, calcein release from liposomes; type: biochemical; settings: Bcl-xL(ΔC) 500 nM; read-out: Pore Inhibition IC50
# T1 construct: inferred from Ni-NTA purification and the pET22b(+) NdeI/XhoI cloning); made in house; host or cells: Escherichia coli BL21(DE3) carrying pUB520
# Method: (§1) Large unilamellar vesicles composed of 60% dioleoylphophatidylcholine and 40% dioleoylphosphatidylglycerol were prepared by the extrusion method of Mayer et al., supra. Lipid stocks, in chloroform, were mixed and dried under a stream of nitrogen gas. The lipid was resuspended by vortexing for 30 min in a solution of 40 mM calcein (Molecular Probes), 25 mM KCl, and 10 mM KOAc, pH 5.0. After 10 freeze-thaw cycles, the lipid suspension was extruded through two 0.1 μm pore diameter Nucleopore filters. Non-entrapped dye was removed by passage over a Sephadex G10 column (Amersham Biosciences). Lipid concentration was measured using the ammonium ferrothiocyanate method (Stewart, Anal. Biochem. 104:10-14, 1980).
# For pore assays, recombinant truncated Bcl-2 family protein or mutant protein (Bcl-xL(ΔC)) (500 nM) was added to large unilamellar vesicles (60 μM lipid concentration) in 100 mM KCl, 10 mM KOAc, pH 5.0, and fluorescence measured (490 nm excitation, 520 nm emission) with a Fluoromax-3 spectrophotometer. […] Samples for kinetic assays were analyzed in a thermostatted cuvette at 37° C. with constant stirring. Dose responses were measured in black quartz microplates (Hellma) at room temperature. Calcein release was expressed as percentage of maximum release with detergent lysis (0.1% Triton X-100). […]
# [2] = target: T2, Bcl-xL(ΔC) WT (Homo sapiens, UniProt Q07817); assay: Fluorescence anisotropy binding; settings: AA1 200 nM or FITC-labeled BH3 peptide 25 nM; read-out: Dissociation Constant KD
# T2 construct: inferred from Ni-NTA purification and the pET22b(+) NdeI/XhoI cloning); made in house; host or cells: Escherichia coli BL21(DE3) carrying pUB520
# Method: (§2) A pET22b (Novagen) vector coding for BCl-xL(ΔC), a mutant Bcl-xL protein without the COOH terminal region, was transformed into Escherichia coli BL21(DE3) cells that carried pUB520 (encoding human Arg tRNA) and grown to an A600 of 0.6. Protein expression was induced with 0.1 mM isopropyl β-D-thiogalactoside at 30° C. The cells were resuspended 1:5 (w/v) in PEB buffer (50 mM Tris, pH 8.0, 200 mM NaCl, 0.2 mM phenylmethylsulfonyl fluoride, 5 mM β-mercaptoethanol, 5 mM imidazole, and 1% (v/v) glycerol), and stirred for 20 min at 4° C. Cells were disrupted by pulse sonication, and the soluble fraction was loaded onto a nickel-nitrilotriacetic acid column (Qiagen) equilibrated with PEB buffer. The column was washed with 40 mM imidazole, eluted with 200 mM imidazole, and the protein fractions were pooled and dialyzed (50 mM Tris, pH 8.0, 200 mM NaCl, 0.2 mM phenylmethylsulfonyl fluoride) at 4° C. overnight. The dialyzed protein was concentrated to 10 mg/ml and fractionated on a Superdex 75 gel filtration column (Amersham Biosciences). The fractions containing Bcl-xL(ΔC) protein were pooled, exchanged into low-salt buffer (same as for previous dialysis buffer, except 50 mM NaCI), and loaded onto a MonoQ anion exchange column (Amersham Biosciences). Protein was eluted from the column with increasing NaCl gradient, pooled and concentrated.
# (§3) All reagents were prepared in 0.2 μm-filtered PBS with fresh 1 mM DTT. […] Slit widths were set at 10 nm for both excitation and emission.
# [3] = target: T3, Bcl-xL(ΔC) F97W (Homo sapiens, UniProt Q07817, F97W); assay: Fluorescence anisotropy binding
# T3 construct: inferred from Ni-NTA purification and the pET22b(+) NdeI/XhoI cloning); made in house; host or cells: Escherichia coli BL21(DE3) carrying pUB520
# Method: as §2, §3
# [4] = target: T1, Bcl-xL(ΔC) A142L; assay: Fluorescence anisotropy binding
# Method: as §2, §3
# [5] = target: T4, Bcl-xL(ΔC) E92L (Homo sapiens, UniProt Q07817, E92L); assay: Fluorescence anisotropy binding; settings: AA1 200 nM or FITC-labeled BH3 peptide 25 nM; read-out: Dissociation Constant KD
# T4 construct: inferred from Ni-NTA purification and the pET22b(+) NdeI/XhoI cloning); made in house; host or cells: Escherichia coli BL21(DE3) carrying pUB520
# Method: as §2, §3
# [6] = target: T5, Bcl-xL(ΔC) F146L (Homo sapiens, UniProt Q07817, F146L); assay: Fluorescence anisotropy binding
# T5 construct: inferred from Ni-NTA purification and the pET22b(+) NdeI/XhoI cloning); made in house; host or cells: Escherichia coli BL21(DE3) carrying pUB520
# Method: as §2, §3
# [7] = test system: TAMH cells over-expressing Bcl-xL E92L; assay: Cytotoxicity (Alamar Blue) in Bcl-xL transfectants; type: cell-based, murine; settings: 24 h
# Method: (§4) TAMH cells were transfected with DNA encoding each of the mutant BCl-xL proteins by lipofection (See Example 1 for method). For analysis of BCl-xL expression, 20 μg of cell protein was separated by 20% SDS-PAGE and transferred to nitrocellulose membranes. Immunodetection of BCl-xL was carried out using rabbit anti-Bcl-xL antibody and Protein A/horseradish peroxidase conjugate, followed by chemiluminescent detection. Cells were grown to about 80% confluence in 96-well plates followed by addition of 100 μl of 2X AA1 or staurosporine (STS) solution in complete medium. STS is a natural product originally isolated from the bacterium Streptomyces and found to be capable of inducing apoptosis in certain cells and which induction of apoptosis could be blocked by the expression of a Bcl-2 family protein. Cell viability was determined spectrophotometrically after 24 h treatment as the ratio of reduced and oxidized Alamar Blue (BIOSOURCE) at 570 nm and 600 nm, respectively. All results were normalized against DMSO controls. LD50 values were calculated by non-linear regression analysis using Prism software (Graphpad).
# [8] = test system: TAMH cells over-expressing Bcl-xL WT; assay: Cytotoxicity (Alamar Blue) in Bcl-xL transfectants; type: cell-based, murine; settings: 24 h
# Method: as §4
# [9] = test system: TAMH cells over-expressing Bcl-xL A142L; assay: Cytotoxicity (Alamar Blue) in Bcl-xL transfectants; type: cell-based, murine
# Method: as §4
# [10] = test system: TAMH cells over-expressing Bcl-xL F146L; assay: Cytotoxicity (Alamar Blue) in Bcl-xL transfectants; type: cell-based, murine
# Method: as §4
# [11] = test system: TAMH cells over-expressing Bcl-xL F97W; assay: Cytotoxicity (Alamar Blue) in Bcl-xL transfectants; type: cell-based, murine; settings: 24 h
# Method: as §4
# [12] = target: T2, Bcl-xL(ΔC) WT; assay: Pore-forming activity, calcein release from liposomes; type: biochemical
# Method: as §1
# (§5) For pore assays, recombinant truncated Bcl-2 family protein or mutant protein (Bcl-xL(ΔC)) (500 nM) was added to large unilamellar vesicles (60 μM lipid concentration) in 100 mM KCl, 10 mM KOAc, pH 5.0, and fluorescence measured (490 nm excitation, 520 nm emission) with a Fluoromax-3 spectrophotometer. Peptides of the BH3 domain were incubated with the BCl-xL(ΔC) 5 min prior to mixing with liposomes. AA1 was added to liposomes 1 min before adding the Bcl-xL(ΔC) protein. Samples for kinetic assays were analyzed in a thermostatted cuvette at 37° C. with constant stirring. Dose responses were measured in black quartz microplates (Hellma) at room temperature. Calcein release was expressed as percentage of maximum release with detergent lysis (0.1% Triton X-100).
# [13] = target: T3, Bcl-xL(ΔC) F97W; assay: as above; type: biochemical; settings: Bcl-xL(ΔC) 500 nM; read-out: Pore Inhibition IC50
# Method: as §1, §5
# [14] = target: T4, Bcl-xL(ΔC) E92L; assay: as above; type: biochemical; settings: Bcl-xL(ΔC) 500 nM; read-out: Pore Inhibition IC50
# Method: as §1, §5
# [15] = target: T5, Bcl-xL(ΔC) F146L; assay: as above; type: biochemical; settings: Bcl-xL(ΔC) 500 nM; read-out: Pore Inhibition IC50
# Method: as §1, §5
# [16] = AA1 200 nM or FITC-labeled BH3 peptide 25 nM, read-out: Dissociation Constant KD
# T3 sequence (Q07817 1-211 F97W limits assumed): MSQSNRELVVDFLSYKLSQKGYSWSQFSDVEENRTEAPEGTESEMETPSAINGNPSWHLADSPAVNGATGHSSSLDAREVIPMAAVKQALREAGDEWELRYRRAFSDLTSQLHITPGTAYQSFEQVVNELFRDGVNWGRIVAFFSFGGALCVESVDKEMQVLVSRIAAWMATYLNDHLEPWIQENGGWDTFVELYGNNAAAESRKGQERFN
# T5 sequence (Q07817 1-211 F146L limits assumed): as the sequence (Q07817 1-211 F97W limits assumed) above, with W97F, F146L counted along it
# T1 sequence (Q07817 1-211 A142L limits assumed): as the sequence (Q07817 1-211 F97W limits assumed) above, with W97F, A142L counted along it
# T2 sequence (Q07817 1-211 limits assumed, stated change not applied): as the sequence (Q07817 1-211 F97W limits assumed) above, with W97F counted along it
# T4 sequence (Q07817 1-211 E92L limits assumed): as the sequence (Q07817 1-211 F97W limits assumed) above, with E92L, W97F counted along it
smiles,measurement,setting,value
CCCCCC[C@H]1C(=O)O[C@H](C)[C@H](NC(=O)c2cccc(NC=O)c2O)C(=O)O[C@@H](C)[C@@H]1OC(=O)CC(C)C [antimycin A1],IC50,[1],4.1 ± 1.24 µM
same,Kd,[2],2.36 ± 1.41 µM
same,increase in Kd compared with Bcl-xL wt(ΔC),[3],8 fold
same,Kd,[3]; [16],17.6 ± 5.2 µM
same,increase in Kd compared with Bcl-xL wt(ΔC),[4],20 fold
same,Kd,[4]; [16],41.8 ± 21.4 µM
same,Kd,[5],5.06 ± 0.86 µM
same,decrease in affinity,[6],~10 fold
same,Kd,[6]; [16],20 ± 9.4 µM
same,Cytotoxicity LD50,[7],1.72 ± 0.3 µM
same,Cytotoxicity LD50,[7]; listed as AA1,1.72 ± 0.34^2 μM
same,Cytotoxicity LD50,[8],0.47 µM
same,Cytotoxicity LD50,[8]; listed as AA1,0.47 ± 0.07^ μM
same,sensitivity to antimycin A1,[9],completely insensitive
same,Cytotoxicity LD50,[9]; 24 h,>10 µM
same,sensitivity to antimycin A1,[10],completely insensitive
same,Cytotoxicity LD50,[10]; 24 h,>10 µM
same,Cytotoxicity LD50,[11],5.12 ± 0.9 µM
same,Cytotoxicity LD50,[11]; listed as AA1,5.12 ± 0.94^2 μM
same,effect on Bcl-xL pore-forming activity,[12],inhibited
same,IC50,"[12]; Bcl-xL(ΔC) 500 nM, read-out: Pore Inhibition IC50",2.03 ± 0.24 µM
same,IC50,[13],3.45 ± 0.34 µM
same,IC50,[14],2.47 ± 0.3 µM
same,IC50,[15],3.6 ± 0.4 µM
